Here are results for 13 molecules from patent US10610520B2, “Heterocyclic compound” (Takeda Pharmaceutical Company Limited, priority 2016, dated 2020).

For the assay, the target named is T1, His-hMAGL (recombinant polyhistidine tagged human MAGL protein) (Homo sapiens, UniProt Q99685).
T1 construct: made in house; host or cells: E. coli BL21(DE3)
T1 sequence (Q99685 1-303): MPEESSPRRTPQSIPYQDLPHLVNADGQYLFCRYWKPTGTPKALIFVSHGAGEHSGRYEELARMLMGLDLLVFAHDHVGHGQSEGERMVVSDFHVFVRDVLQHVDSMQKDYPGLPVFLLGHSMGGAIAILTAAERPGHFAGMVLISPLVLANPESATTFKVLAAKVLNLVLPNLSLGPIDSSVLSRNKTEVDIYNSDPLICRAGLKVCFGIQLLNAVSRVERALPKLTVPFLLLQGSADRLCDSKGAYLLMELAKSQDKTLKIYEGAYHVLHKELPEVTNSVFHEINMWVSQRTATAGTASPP
Nature of the assay: Measurement of MAGL inhibitory activity (arachidonic acid production from 2-arachidonylglycerol, RapidFire-mass spectrometry). In kind it is biochemical. The note with it: MAGL inhibitory rate, test compound 10 μM, 60 min preincubation, 2-arachidonylglycerol substrate. A digest of the protocol:
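Arachidonic acid formed was quantified by online solid-phase extraction and triple-quadrupole MS in negative SRM mode against a d8 internal standard. Reaction: recombinant His-hMAGL (7.5 ng/mL, pH 7.5 Tris buffer with Triton X-100 and BSA) plus 2-AG (5 μL of 150 μM stock) for 10 min at room temperature, quenched with 2% formic acid. Percent inhibition corrected for enzyme-free background.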

Turning to `O=C1NC2(CO1)CN(C(=O)[C@H]1C[C@@H](OCc3ccc(Cl)c(Cl)c3)C1)C2` [Example 353, 2-((cis-3-((3,4-dichlorobenzyl)oxy)cyclobutyl)carbonyl)-7-oxa-2,5-diazaspiro[3.4]octan-6-one], the inhibition (commonly the percentage by which the read-out fell short of the control) at 10 µM turned out to be 100%.

For the molecule `O=C1NC2(CO1)CN(C(=O)[C@H]1C[C@H](OCc3ccc(C(F)(F)F)cc3F)C1)C2` [Example 354, 2-((trans-3-((2-fluoro-4-(trifluoromethyl)benzyl)oxy)cyclobutyl)carbonyl)-7-oxa-2,5-diazaspiro[3.4]octan-6-one], the inhibition at 10 µM amounted to 100%.

Consider `Cc1ccc(CO[C@H]2C[C@@H](C(=O)N3CC4(COC(=O)N4)C3)C2)cc1Cl` [Example 356, 2-((cis-3-((3-chloro-4-methylbenzyl)oxy)cyclobutyl)carbonyl)-7-oxa-2,5-diazaspiro[3.4]octan-6-one], for which the inhibition at 10 µM worked out at 100%.

With `Cc1cc(CO[C@H]2C[C@@H](C(=O)N3CC4(COC(=O)N4)C3)C2)ccc1Cl` [Example 357, 2-((cis-3-((4-chloro-3-methylbenzyl)oxy)cyclobutyl)carbonyl)-7-oxa-2,5-diazaspiro[3.4]octan-6-one], the inhibition at 10 µM stood at 100%.

As for `Cc1cc(CO[C@H]2C[C@H](C(=O)N3CC4(COC(=O)N4)C3)C2)ccc1Cl` [Example 358, 2-((trans-3-((4-chloro-3-methylbenzyl)oxy)cyclobutyl)carbonyl)-7-oxa-2,5-diazaspiro[3.4]octan-6-one], the inhibition at 10 µM amounted to 100%.

On to `O=C1NC2(CO1)CN(C(=O)[C@H]1C[C@@H](OCc3ccc(C(F)(F)F)c(Cl)c3)C1)C2` [Example 359, 2-((cis-3-((3-chloro-4-(trifluoromethyl)benzyl)oxy)cyclobutyl)carbonyl)-7-oxa-2,5-diazaspiro[3.4]octan-6-one], for which the inhibition at 10 µM came out at 99%.

Take `O=C1NC2(CO1)CN(C(=O)c1sc3c(F)c(OC(F)(F)F)ccc3c1C(F)F)C2` [Example 360, 2-((3-(difluoromethyl)-7-fluoro-6-(trifluoromethoxy)-1-benzothiophen-2-yl)carbonyl)-7-oxa-2,5-diazaspiro[3.4]octan-6-one]: the inhibition at 10 µM was found to be 100%.

As for `O=C1NC2(CO1)CN(C(=O)c1sc3cc(F)ccc3c1Cl)C2` [Example 361, 2-((3-chloro-6-fluoro-1-benzothiophen-2-yl)carbonyl)-7-oxa-2,5-diazaspiro[3.4]octan-6-one], the inhibition at 10 µM came out at 99%.

For `O=C1NC2(CO1)CN(C(=O)c1sc3cc(F)cc(F)c3c1Cl)C2` [Example 362, 2-((3-chloro-4,6-difluoro-1-benzothiophen-2-yl)carbonyl)-7-oxa-2,5-diazaspiro[3.4]octan-6-one], the inhibition at 10 µM was determined as 100%.

In the case of `O=C1NC2(CO1)CN(C(=O)c1sc3cc(F)cc(OCC4CC4)c3c1Cl)C2` [Example 363, 2-((3-chloro-4-(cyclopropylmethoxy)-6-fluoro-1-benzothiophen-2-yl)carbonyl)-7-oxa-2,5-diazaspiro[3.4]octan-6-one], the inhibition at 10 µM was 99%.

With `O=C1NC2(CO1)CN(C(=O)c1sc3cc(Cl)ccc3c1Cl)C2` [Example 364, 2-((3,6-dichloro-1-benzothiophen-2-yl)carbonyl)-7-oxa-2,5-diazaspiro[3.4]octan-6-one], the inhibition at 10 µM came out at 100%.

Take `O=C1NC2(CCN(C(=O)c3sc4cc(C(F)(F)F)ccc4c3Cl)C2)CO1` (stereo not shown) [Example 365, 7-((3-chloro-6-(trifluoromethyl)-1-benzothiophen-2-yl)carbonyl)-3-oxa-1,7-diazaspiro[4.4]nonan-2-one]: the inhibition at 10 µM came to 100%.

For the molecule `Cc1c(C(=O)N2CC3(CCC(=O)N3)C2)sc2cc(C(F)(F)F)ccc12` [Example 366, 2-((3-methyl-6-(trifluoromethyl)-1-benzothiophen-2-yl)carbonyl)-2,5-diazaspiro[3.4]octan-6-one], the inhibition at 10 µM stood at 99%.
